Literature values in patent US20260138960A1, “A PROCESS FOR THE PREPARATION OF CRYSTALLINE FORM OF TAFAMIDIS” (BIOPHORE INDIA PHARMACEUTICALS PVT. LTD, priority 2022, published 2026).

Conditions: poorly soluble, but permeate biological membranes well

Row | biopharmaceutical classification system (BCS) class | Compound
1 | class II | O=C(O)c1ccc2nc(-c3cc(Cl)cc(Cl)c3)oc2c1 [Tafamidis, 2-(3,5-dichlorophenyl)-1,3-benzoxazole-6-carboxylic acid]
2 | class II | CNC[C@H](O)[C@@H](O)[C@H](O)[C@H](O)CO.O=C(O)c1ccc2nc(-c3cc(Cl)cc(Cl)c3)oc2c1 [Tafamidis meglumine]
